Test results published in patent US20260297542A1, “HERBICIDE RESISTANT PLANTS” (SYNGENTA CROP PROTECTION AG, priority 2023, published 2026).
Residue numbers refer to the chain shown, from its start.

Columns and labels:
Test in all cases: fluorescent Protoporphyrinogen Oxidase assay, crude extract
Assay type in all cases: biochemical
Conditions in all cases: read-out: percentage inhibition
[1] = target: T1, AtPPO1 S305L L361D V365M (SEQ ID NO.133) (Arabidopsis thaliana, UniProt P55826, S305L/V365M/Y361D)
T1 sequence (P55826 35-537 S305L/Y361D/V365M): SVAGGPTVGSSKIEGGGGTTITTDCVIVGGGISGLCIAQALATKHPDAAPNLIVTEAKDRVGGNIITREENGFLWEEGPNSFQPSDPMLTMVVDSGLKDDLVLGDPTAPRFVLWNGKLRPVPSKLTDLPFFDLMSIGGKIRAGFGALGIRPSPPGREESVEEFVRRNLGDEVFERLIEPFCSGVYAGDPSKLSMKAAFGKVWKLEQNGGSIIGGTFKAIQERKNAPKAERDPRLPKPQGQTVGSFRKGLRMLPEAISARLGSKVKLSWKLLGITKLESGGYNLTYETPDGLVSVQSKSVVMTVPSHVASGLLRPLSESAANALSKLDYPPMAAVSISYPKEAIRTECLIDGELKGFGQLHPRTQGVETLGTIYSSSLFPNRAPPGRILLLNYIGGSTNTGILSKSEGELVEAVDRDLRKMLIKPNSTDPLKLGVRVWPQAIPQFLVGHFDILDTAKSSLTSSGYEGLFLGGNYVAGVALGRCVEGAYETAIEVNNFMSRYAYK

[2] = target: T2, AtPPO1 S305L Y426V L479M (SEQ ID NO.131) (Arabidopsis thaliana, UniProt P55826, L479M/S305L/Y426V)
T2 construct: made in house; host or cells: E. coli BL21 (DE3) hemG, crude extract
T2 sequence (P55826 35-537 S305L/Y426V/L479M): T1 sequence (P55826 35-537 S305L/Y361D/V365M) with D327Y, M331V, Y392V, L445M

[3] = target: T3, WT (SEQ ID NO.1) AtPPO1 (Arabidopsis thaliana, UniProt P55826)
T3 construct: made in house; host or cells: E. coli BL21 (DE3) hemG, crude extract
T3 sequence (P55826 35-537): T1 sequence (P55826 35-537 S305L/Y361D/V365M) with L271S, D327Y, M331V

SMILES | inhibition at 0.1 ppm [1] [%] | inhibition at 1 ppm [1] [%] | inhibition at 10 ppm [1] [%] | inhibition at 100 ppm [1] [%] | inhibition at 0.1 ppm [2] [%] | inhibition at 1 ppm [2] [%] | inhibition at 10 ppm [2] [%] | inhibition at 100 ppm [2] [%] | inhibition at 0.1 ppm [3] [%] | inhibition at 1 ppm [3] [%] | inhibition at 10 ppm [3] [%] | inhibition at 100 ppm [3] [%]
CCOC(=O)COc1ncccc1Oc1cc(-n2c(=O)cc(C(F)(F)F)n(C)c2=O)c(F)cc1Cl [Herbicide A, epyrifenacil] | 9 | 53 | 84 | 100 | 0 | 52 | 87 | 100 | 94 | 100 | 97 | 100
C#CCN1C(=O)C(F)(F)Oc2cc(F)c(-n3c(=O)n(C)c(=S)n(C)c3=O)cc21 [Herbicide B, trifludimoxazin] | 96 | 100 | 100 | 100 | 99 | 96 | 100 | 100 | 97 | 97 | 96 | 100
CCOC(=O)C1(C)CC(c2cc(-n3c(=O)cc(C(F)(F)F)n(C)c3=O)c(F)cc2Cl)=NO1 (stereo not drawn) [Herbicide C, 3-(2-chloro-4-fluoro-5-(3-methyl-2,6-dioxo-4-trifluoromethyl-3,6-dihydropyrimidin-1(2H)-yl)phenyl)-5-methyl-4,5-dihydroisoxazole-5-carboxylic acid ethyl ester] | 30 | 56 | 92 | 100 | 28 | 59 | 90 | 100 | 91 | 91 | 98 | 93
CCOC(=O)[C@]1(C)CC(c2cc(-n3c(=O)n(C)c(=S)n(C)c3=O)c(F)cc2Cl)=NO1 [Herbicide D, ethyl (5S)-3-[2-chloro-5-(3,5-dimethyl-2,6-dioxo-4-thioxo-1,3,5-triazinan-1-yl)-4-fluoro-phenyl]-5-methyl-4H-isoxazole-5-carboxylate] | 37 | 87 | 99 | 100 | 4 | 46 | 76 | 97 | 91 | 90 | 96 | 100
CC(C)N(C)S(=O)(=O)NC(=O)c1cc(-n2c(=O)cc(C(F)(F)F)n(C)c2=O)c(F)cc1Cl [Herbicide E, saflufenacil] | 0 | 10 | 76 | 88 | 0 | 28 | 70 | 87 | 91 | 97 | 100 | 100
